Three compounds from patent publication US9540337B2, “Gamma-glutamyl transpeptidase inhibitors and methods of use” (The Board of Regents of the University of Oklahoma, priority 2012, dated 2017) can be followed below.

Read-outs that look alike come from different tables or passages of the source.

Data set [1] deals with T1, Human GGT1 (hGGT) (Homo sapiens, UniProt P19440). The experiment in a line: D-GpNA Hydrolysis Assay (release of pNA, 405 nm, pH 7.4). As to the method: Enzyme Isolation: Human GGT1 (P19440), lacking the transmembrane domain, was expressed in Pichia pastoris and isolated as previously described (14). […] One unit of GGT activity was defined as the amount of enzyme that released 1 μmol of paranitroaniline/min at 37° C. at pH 7.4 in the transpeptidation reaction.
T1 sequence (P19440 381-569 limits assumed): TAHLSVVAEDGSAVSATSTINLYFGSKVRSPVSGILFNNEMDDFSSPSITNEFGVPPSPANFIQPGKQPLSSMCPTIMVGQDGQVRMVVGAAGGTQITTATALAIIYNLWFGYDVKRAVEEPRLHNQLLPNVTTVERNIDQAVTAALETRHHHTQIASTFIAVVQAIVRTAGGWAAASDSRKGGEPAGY
T1 sequence (P19440 27-380 limits assumed): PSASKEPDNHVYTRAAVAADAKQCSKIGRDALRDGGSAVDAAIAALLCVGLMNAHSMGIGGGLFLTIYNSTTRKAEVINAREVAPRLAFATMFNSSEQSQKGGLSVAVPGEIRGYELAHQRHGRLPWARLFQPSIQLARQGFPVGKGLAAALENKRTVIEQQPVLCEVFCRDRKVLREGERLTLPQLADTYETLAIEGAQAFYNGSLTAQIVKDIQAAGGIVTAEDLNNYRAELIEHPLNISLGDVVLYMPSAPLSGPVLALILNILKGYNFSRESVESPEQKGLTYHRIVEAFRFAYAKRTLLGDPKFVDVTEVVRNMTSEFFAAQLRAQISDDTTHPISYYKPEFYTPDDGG
The reaction was initiated with the addition of 19 mU GGT. The reaction was incubated at 37° C. and monitored continuously at 405 nm by a Bio-Rad model 680 microplate reader with Microplate Manager 5.2 software (Bio-Rad, Hercules, Calif.).
Data Analysis: Samples in each experiment were run in triplicate. Each inhibitor was evaluated in two or more independent experiments. Double reciprocal plots were generated to assess data quality and determine the correct rate equation for data fitting. Data were fitted using the proper rate equation and the Marquardt-Levenberg algorithm supplied with the Enzfitter program (BIOSOFT, Cambridge, UK). Kinetic parameters with standard errors were estimated using a simple weighting method.
Data adhering to Michaelis-Menten Kinetics were fitted to eq. 1. Data for initial rate patterns with D-, L-GpNA varied at different fixed levels of glygly were fitted to eq. […] Data for competitive and uncompetitive inhibition were fitted to eqs. 3 and 4. Data for the dependence of Vmax and Vmax/KD-GpNA on the concentration of activator were fitted using eq. 5 (25).
In eqs 1-6, Vmax are the initial and maximum rates, respectively, Ka and Kb are Michaelis constants for substrates A and B, respectively, and Kis and Kii are slope and intercept inhibition constants. In eq. 5, a is the value of Vmax or Vmax/KD-GpNA at zero activator/inhibitor, KID is the activation or inhibition constant, and KIN is a constant that causes the parameter to go to a constant value at infinite concentrations of X, the activator/inhibitor. The product a(KID/KIN) is the value of Vmax or Vmax/KD-GpNA at infinite activator/inhibitor (25). Data for noncompetitive inhibition were fitted to eq. 6. Data for the dependence of Vmax and Vmax/KD-GpNA on the concentration of activator were fitted using […].
Enzyme Isolation: hGGT (P19440), lacking the transmembrane domain, was expressed in Pichia pastoris and isolated as previously described. […] One unit of GGT activity was defined as the amount of enzyme that released 1 μmol of paranitroaniline/min at 37° C. at pH 7.4 in the transpeptidation reaction with L-GpNA.
D-GpNA Hydrolysis Assay: The assay was carried out as previously described. […] The reaction was initiated with the addition of 19 mU GGT as determined by the L-GpNA transpeptidation assay. The reaction was incubated at 37° C. and monitored continuously at 405 nm.

The next data set deals with T2, hGGT (Homo sapiens, UniProt P19440).
T2 construct: lacking the transmembrane domain; made in house; host or cells: Pichia pastoris
T2 sequence (P19440 381-569 limits assumed): as the sequence (P19440 381-569 limits assumed) above
T2 sequence (P19440 27-380 limits assumed): as the sequence (P19440 27-380 limits assumed) above
The data set can be described thus: L-Glutamate Release Assay (Hydrolysis of GSH). The format is biochemical. The conditions noted are these: for Ki: GSH hydrolysis, read-out: GSH Kii; for fold more potent than OU749 in inhibiting GSH hydrolysis: relative to OU749. As to the method:
L-Glutamate Release Assay (Hydrolysis of GSH): This assay measures the production of glutamate from the hydrolysis of GSH by GGT enzyme and has been described in detail previously. The concentration of the substrate, GSH, was varied from 5 μM to 20 μM. The concentration of the inhibitors, OU749 and its analogs, were varied from 15.6 μM to 250 μM. The reaction was initiated with the addition of 10 mU hGGT. […] All compounds were also evaluated as inhibitors of glutamate dehydrogenase, the enzyme in the second half of the L-glutamate release assay. None of the compounds in this study inhibited glutamate dehydrogenase.

Data set [2] can be described thus: Cytotoxicity in dividing 786-O cells (MTT assay, 72 hours). The conditions noted are these: human, 786-o cells, dividing 786-O cells, 72 hours; read-out: LD50. The format is cell-based, human. As to the method: (§1) Cell Lines: 786-0 cells (ATCC CRL-1932), a human renal adenocarcinoma cell line, were grown in Dulbecco's Modified Eagle's Medium (DMEM) supplemented with 10% fetal bovine serum (FBS) and penicillin/streptomycin (50 units/ml, 50 μg/ml). NIH3T3 cells (ATCC CRL 1658) which are GGT-negative and NIH3T3 cells expressing hGGT [described previously were grown in DMEM/F12 media supplemented with 5% FBS and 0.2 mg/ml G418.
(§2) Cytotoxicity Assays: 786-0 cells were plated at 10^3 cells/well in a 96-well plate in DMEM supplemented with 10% FBS and penicillin/streptomycin (50 units/ml, 50 μg/ml). After 24 hours, the media was changed to fresh media containing OU749 analogs. A 100 mM stock of OU749 and each of its analogs were made in DMSO then diluted in DMEM. Control wells were treated with equivalent concentrations of DMSO. Cell viability was determined 72 hours after the addition of the inhibitors by the MTT assay. For the toxicity of the OU749 and its analogs in 786-0 cells, all determinations were done in triplicate. The LD50 of each compound and the standard deviation (S.D.) were calculated with a Prism log (inhibitor) versus normalized response (variable slope) curve fit (Prism, GraphPad Software Inc., San Diego, Calif.).
Background: Formazan colour is commonly taken as a measure of viable cells.

In data set [3] the target is T1, Human GGT1 (hGGT). The experiment in a line: L-GpNA Transpeptidation Assay with GlyGly as acceptor. Details: lacking the transmembrane domain; made in house; host or cells: Pichia pastoris. The format is biochemical. As to the method:
Transpeptidation Reaction: The same assay buffer was used for both the hydrolysis reaction and the transpeptidation reaction. The transpeptidation reaction included 40 mM glycylglycine (glygly, Sigma, St. Louis, Mo.) as the acceptor. […] The concentration of L-GpNA was 3 mM for experiments in which the concentration of glygly was varied. To initiate the transpeptidation reaction, 4 mU GGT were added.
1. […] 3 and 4. […] 5 (25).
L-GpNA Transpeptidation Assay: The assay has been described previously. […] The concentration of L-GpNA was 3 mM for experiments in which the concentration of GlyGly was varied. To initiate the transpeptidation reaction, 4 mU GGT were added.

The subject of data set [4] is hGGT expressed on the surface of 786-0 cells. The experiment in a line: Catabolism of extracellular GSH by 786-O cells. The conditions noted are these: 100 μM Compound 6, 20 μM GSH, one hour; 60 min. The data set is classed as cell-based, human. As to the method: as §1
(§3) Catabolism of Extracellular GSH: 786-O and NIH3T3 cells were plated in 96-well plates at a density of 5×10^3 cells/well. After 24 hours, the media was changed to 100 μl cysteine-free DMEM/F12 supplemented with either 20 μM GSH or 20 μM GSH and 100 μM compound 6. After one hour, 50 μl of media was removed and immediately acidified with 5 μl ice-cold 43.1% 5-sulfosalicylic acid. After 10 minutes on ice, the solution was neutralized with 15 μl of 1 M NaOH. The GSH concentration was determined by the method of Tietze.

The test system of data set [5] is human GGT in NIH3T3^GGT cells. The experiment in a line: Catabolism of extracellular GSH by NIH3T3 cells transfected with human GGT. The data set is classed as cell-based. Conditions: Compound 6 100 μM, 20 μM GSH, one hour; 60 min. As to the method:
as §1, §3

The subject of another data set is 786-0 cells. The experiment in a line: Cytotoxicity in dividing 786-O cells (MTT assay, 72 hours). The format is cell-based, human. Conditions: for fold less toxic (cytotoxic) than OU749: LD50 ratio, 786-O cells. How it is done:
as §1, §2

The mark [6] stands for this setting: GlyGly varied, 3 mM L-GpNA, Table 2, read-out: Transpeptidation GlyGly Kis.
[7] abbreviates: L-GpNA varied, 40 mM GlyGly, Table 2, read-out: Transpeptidation L-GpNA Kii.

Regarding `Cc1ccc(Cc2nnc(NS(=O)(=O)c3ccc(N)cc3)s2)cc1` [Compound 22], the Ki on Human GGT1 (hGGT) [1] was 31 ± 1 µM; at hGGT (Table 5), 82 ± 13 µM; at Human GGT1 (hGGT) [3] (Table 5, read-out: GlyGly with L-GpNA Kis), 6 ± 1 µM; on Human GGT1 (hGGT) [3] (Table 5, read-out: L-GpNA with GlyGly Kii), 30 ± 4 µM. The CC50 at 72 h in data set [2] is 727 ± 0.02 µM.

On to `COc1ccc(Cc2nnc(NS(=O)(=O)c3cccc4ccccc34)s2)cc1` [Compound 6], for which the Ki was found to be 161 ± 4.5 µM on Human GGT1 (hGGT) [1] (read-out: Hydrolysis D-GpNA Kii, D-GpNA substrate, Table 2); 96 ± 2 µM on hGGT (Table 6); 45.7 ± 3.4 µM on Human GGT1 (hGGT) [3] (setting [6]); 74.9 ± 3.6 µM on Human GGT1 (hGGT) [3] (setting [7]). Also, the “fold less effective than OU749 in inhibiting hydrolysis of D-GpNA” value on Human GGT1 (hGGT) [1] (relative to OU749) was 2-5 fold. In addition, the “fold more potent than OU749 in inhibiting GSH hydrolysis” value at hGGT was found to be 4 fold. Further, in data set [4], the “block of hGGT catabolism of extracellular GSH” value worked out at 51%. In addition, the “reduction of GSH metabolism in the media” value in data set [5] is 59%. For the same compound, the CC50 at 72 h in data set [2] is around 2100 µM. In addition, the “fold less toxic (cytotoxic) than OU749” value in the data set on 786-0 cells is recorded as “more than 16 fold”. Moreover, in the data set with 786-0 cells (dividing 786-O cells, 72 hours, 4320 min, read-out: LD50 (the source's name)), the CC50 turned out to be 2090 ± 20 µM.

On to `COc1ccc(Cc2nnc(NS(=O)(=O)c3cccc(Cl)c3)s2)cc1` [Compound 3], for which the Ki came out at 74.9 ± 2.2 µM on Human GGT1 (hGGT) [1], 67 ± 6 µM on hGGT (Table 6), 11.9 ± 1.1 µM on Human GGT1 (hGGT) [3] (setting [6]) and 22 ± 0.7 µM at Human GGT1 (hGGT) [3] (setting [7]). At hGGT, the “fold more potent than OU749 in inhibiting GSH hydrolysis” value came out at 5.6 fold. Also, the CC50 at 72 h in data set [2] turned out to be 382 µM. In the data set on 786-0 cells, the “fold less toxic (cytotoxic) than OU749” value is 3 fold.
